Assay results taken from patent US20250073014A1, “METHODS, DEVICES AND SYSTEMS FOR TREATING NEOINTIMAL GROWTH” (priority 2022, published 2025).
Like-named read-outs stand apart in the source and are kept apart here.

Key:
[1] = test system: cholesterol-induced atherosclerosis; details: cited from earlier work
[2] = design: species or system Yorkshire swine; details: female, Yorkshire, pig, in vivo
Experimental: Formulations: Two Different Formulations were Prepared: • 1. […] Sirolimus was encapsulated in gelatin nanoparticles (GNP).
An incision of 5-8 cm was made alongside the femoral (or carotid) artery, and surrounding muscle and perivascular fascia were bluntly dissected to expose the artery.
The HPLC facility isolated the paclitaxel in usual manner and sirolimus was isolated with an addition step of enzymatic digesting of the GNP with trypsin at 37° C. before the analysis of each of them by Liquid Chromatography with tandem mass spectrometry (LC-MS-MS). • 1. Paclitaxel on day 1 in both the arteries with the final concentration of 12 ng/g in the first artery and 5.2 ng/g in second artery was detected by LC-MS/MS. The solution that was evacuated after 5 min of the formulation in the test site was evaluated by LC-MS/MS to detect 15% (75 mg) of the initial concentration of injected paclitaxel solution. […] Only few nanograms were detected in 24 h and that could indicate that probably 100% DMSO as a carrier took away the paclitaxel from the site to other region of the leg muscles that were not evaluated.

[3] = Stability and solubility of rapamycin in DMSO and DMSO/saline; format: physicochemical; details: in DMSO at −20° C.
Description: The rapamycin solution in DMSO could be further diluted either in saline, PBS, or distilled water.
The best working solution is considered to be 50/50 DMSO/water i.e., 50% of the DMSO in solution. This could be envisioned valid if instead of saline blood is used.

[4] = Rapamycin delivery in isolated porcine carotid artery (LC-MS/MS of tissue and washings); format: in vitro ADME
Experimental: Sirolimus/Rapamycin was analyzed using an LC-MS/MS system consisting of an Agilent 1290 (San Jose, CA, USA) coupled to electrospray ionization on a triple quadrupole mass spectrometer (Agilent 6460, San Jose, CA, USA) equipped with a turbo ion spray interface in negative ionization mode, and an Agilent LC 1200 Binary pump system (Agilent Technologies, Santa Clara, CA, USA). Ascomycin was used as an internal standard (IS). A Gemini 5 μm NX-C18 110 Å, LC Column polar-RP 80A column (50×2 mm, Phenomenex, Torrance, CA, USA) equipped with a Security Guard™ column (4.0 mm×3.0 mm) was utilized to optimally separate sirolimus and the internal standard from endogenous substances of porcine carotid artery. The mobile phase was a mixture of 20 mM ammonium acetate (A) and methanol (B). Sample separation was conducted using a flow rate of 0.2 mL/min and a 10-min gradient condition (0-1 min: 20% B, 1-6 min: 100% B, 6-7 min: 100% B, 7.1-10 min: 20% B). The injection volume was […] for calibration and carotid artery samples. The selected reaction monitoring transitions of m/z 912.5→371.2 and m/z 790.5→530.3 were applied for sirolimus and IS, respectively. Mass data were acquired using Analyst software version 1.5.2 (Applied Biosystems-SCIEX, Concord, ON, Canada). Data analysis was processed using SCIEX OS offline software version 1.6 (Applied Biosystems-SCIEX, Concord, ON, Canada).
Sirolimus/Rapamycin was dissolved in acetonitrile to prepare a stock solution (1 mg/mL) and including IS with 2 ng/μL and were gradually diluted by the serial dilution method using calibrated pipettes (2-20 μL, 10-100 μL and 100-1000 μL), in order to obtain working stock dilutions at decreasing concentrations ([…]). These solutions were used for the preparation of mass spectrometry optimization, calibration curve and quality control standards in DMSO and carotid artery homogenates. These stock solutions and stock dilutions were stored at −20° C., respectively.
Sirolimus/Rapamycin was dissolved in DMSO to prepare a final concentration of 100 mg/mL (stock solution) and stored at −80° C. The porcine carotid arteries were washed 5 times in PBS (1×) to remove all the blood and fluids, followed by cutting them into 40 mm length. The surface area (SA) of the artery was calculated to be 628 mm^2 (lateral SAcylinder=2πrh; π=3.14, r=2.5 mm, and h=40 mm). The Rapamycin solution was diluted in DMSO to prepare […] (2 μg/mm^2). One of the carotid arteries was tied at one end and then it was filled with 0.5 mL of Rapamycin solution ([Rapamycin]0=628 μg/mL) then the open end was tied. After a 5-minute treatment, the solution was drained out, then arteries were washed with 5×0.2 mL of PBS (1×) which was also collected for the analysis. A similar experiment was performed as a biological duplicate. The arteries and the washings were then analyzed for the presence of Sirolimus/Rapamycin for determining the amount that was absorbed by the tissues compared to the amount that was washed out for use as a model.
Treated and untreated porcine carotid artery segments (100 mg, 2 mm) were shredded in methanol with a surgical blade and transferred to a 2 ml tube with a total volume of 1 ml methanol and 100 μL of internal standard (1 ng/ml). This tube contained garnet beads/shards for homogenizing tissue. Then a Qiagen Tissue Lyser LT was used to beat the artery shreds at 50 Hz for 10 minutes. The supernatant was dried down completely under a gentle stream of nitrogen using a nitrogen evaporator. The samples were resuspended in 100 μL of DMSO and placed in inserted universal autosampler vials prior to analysis.

## C[S+](C)[O-] [DMSO, dimethyl sulfoxide]
[1]
  Food intake of rabbits on the atherogenic diet: not suppressed
[1]; rabbits on atherogenic diet, 2% (dose, 1.5 g/kg) DMSO
  Inhibition of aortic lesions: about 50%
[1]; rabbits on atherogenic diet, 4 (3.5 g/kg), 5 (5.5 g/kg) and 6% (9.1 g/kg) DMSO
  Aortic lesions: virtually absent in the majority of rabbits

## CC(=O)O[C@H]1C(=O)[C@@]2(C)[C@H]([C@H](OC(=O)c3ccccc3)[C@]3(O)C[C@H](OC(=O)[C@H](O)[C@@H](NC(=O)c4ccccc4)c4ccccc4)C(C)=C1C3(C)C)[C@]1(OC(C)=O)CO[C@@H]1C[C@@H]2O [Paclitaxel]
[2]
  Drug in solution evacuated after 5 min, % of the initial concentration: 15%
  Drug in solution evacuated after 5 min, amount: 75 mg
[2]; 5 min
  Absorbed by the tissue, %: 85%
  Absorbed by the tissue, amount: 425 mg
Day 7 animal
  Adverse reaction (edema): no edema was observed
Day 14 animal
  Adverse reaction (edema): Same lack of reaction was observed
In vivo
  Findings around the site of delivery when sutures were opened: a lot of dead tissues and blood clots
t=24 h animal
  Adverse reaction on injected leg (edema): severe edema

## CO[C@H]1C[C@@H]2CC[C@@H](C)[C@@](O)(O2)C(=O)C(=O)N2CCCC[C@H]2C(=O)O[C@H]([C@H](C)C[C@@H]2CC[C@@H](O)[C@H](OC)C2)CC(=O)[C@H](C)/C=C(\C)[C@@H](O)[C@@H](OC)C(=O)[C@H](C)C[C@H](C)/C=C/C=C/C=C/1C [Rapamycin]
[3]
  Stability of rapamycin in DMSO: many months
[4]; 5-minute treatment, rapamycin in DMSO
  % of total drug in 2 mm of artery: 30.13%
[4]; PBS washings after 5-minute treatment
  % of total drug in washings (40 mm of artery): 0.5%
[4]; Total Dose 220 ug
  Delivery efficiency: 99.55%
  Lost in Blood stream (washed out): 1 µg
  Remaining in tissue: 68.75 µg
  Remaining in tissue, % of the dose: 30.13 % of the dose
